From patent publication US8598365B2, “Herbicides” (Syngenta Limited, priority 2007, dated 2013)

Columns and labels:
Assay type in all cases: in vivo
[1] = tested on: Amaranthus retoflexus (AMARE); experiment: Example B pre-emergence herbicidal activity; conditions: Amaranthus retroflexus, 312 h, rate 250 g/ha, evaluated after 13 days, read-out: Pre-Emergence Activity AMARE (100=total damage to plant; 0=no damage to plant)
Procedure: (§1) Seeds of a variety of test species were sown in standard soil in pots. After cultivation for one day (pre-emergence) or after 8 days cultivation (post-emergence) under controlled conditions in a glasshouse (at 24/16° C., day/night; 14 hours light; 65% humidity), the plants were sprayed with an aqueous spray solution derived from the formulation of the technical active ingredient in acetone/water (50:50) solution containing 0.5% Tween 20 (polyoxyethelyene sorbitan monolaurate, CAS RN 9005-64-5).
(§2) The test plants were then grown in a glasshouse under controlled conditions in a glasshouse (at 24/16° C., day/night; 14 hours light; 65% humidity) and watered twice daily. After 13 days for pre and post-emergence, the test was evaluated (100=total damage to plant; 0=no damage to plant).
(§3) Alopecurus myosuroides (ALOMY), Avena fatua (AVEFA), Setaria faberi (SETFA), Echinochloa crus-galli (ECHCG), Solanum nigrum (SOLNI) and Amaranthus retoflexus (AMARE)

Avena fatua (AVEFA) [2] = experiment: Example B pre-emergence herbicidal activity; conditions: 312 h, rate 250 g/ha, evaluated after 13 days, read-out: Pre-Emergence Activity AVEFA (100=total damage to plant; 0=no damage to plant)
Procedure: as §1, §2, §3

[3] = tested on: Echinochloa crus-galli (ECHCG); experiment: Example B pre-emergence herbicidal activity; conditions: 312 h, rate 250 g/ha, evaluated after 13 days, read-out: Pre-Emergence Activity ECHCG (100=total damage to plant; 0=no damage to plant)
Procedure: as §1, §2, §3

Setaria faberi (SETFA) [4] = experiment: Example B pre-emergence herbicidal activity; conditions: 312 h, rate 250 g/ha, evaluated after 13 days, read-out: Pre-Emergence Activity SETFA (100=total damage to plant; 0=no damage to plant)
Procedure: as §1, §2, §3

[5] = tested on: Alopecurus myosuroides (ALOMY); experiment: Example B pre-emergence herbicidal activity; conditions: 312 h, rate 250 g/ha, evaluated after 13 days, read-out: Pre-Emergence Activity ALOMY (100=total damage to plant; 0=no damage to plant)
Procedure: as §1, §2, §3

[6] = tested on: Amaranthus retoflexus (AMARE); experiment: Example B post-emergence herbicidal activity; conditions: Amaranthus retroflexus, 312 h, rate 250 g/ha, evaluated after 13 days, read-out: Post-emergence activity AMARE (100=total damage to plant; 0=no damage to plant)
Procedure: as §1, §2, §3

Avena fatua (AVEFA) [7] = experiment: Example B post-emergence herbicidal activity; conditions: 312 h, rate 250 g/ha, evaluated after 13 days, read-out: Post-emergence activity AVEFA (100=total damage to plant; 0=no damage to plant)
Procedure: as §1, §2, §3

[8] = tested on: Echinochloa crus-galli (ECHCG); experiment: Example B post-emergence herbicidal activity; conditions: 312 h, rate 250 g/ha, evaluated after 13 days, read-out: Post-emergence activity ECHCG (100=total damage to plant; 0=no damage to plant)
Procedure: as §1, §2, §3

Setaria faberi (SETFA) [9] = experiment: Example B post-emergence herbicidal activity; conditions: 312 h, rate 250 g/ha, evaluated after 13 days, read-out: Post-emergence activity SETFA (100=total damage to plant; 0=no damage to plant)
Procedure: as §1, §2, §3

[10] = tested on: Alopecurus myosuroides (ALOMY); experiment: Example B post-emergence herbicidal activity; conditions: 312 h, rate 250 g/ha, evaluated after 13 days, read-out: Post-emergence activity ALOMY (100=total damage to plant; 0=no damage to plant)
Procedure: as §1, §2, §3

| SMILES | pest or weed control at 250 g/ha [1] | pest or weed control at 250 g/ha (Avena fatua (AVEFA) [2]) | pest or weed control at 250 g/ha [3] | pest or weed control at 250 g/ha (Setaria faberi (SETFA) [4]) | pest or weed control at 250 g/ha [5] | pest or weed control at 250 g/ha [6] | pest or weed control at 250 g/ha (Avena fatua (AVEFA) [7]) | pest or weed control at 250 g/ha [8] | pest or weed control at 250 g/ha (Setaria faberi (SETFA) [9]) | pest or weed control at 250 g/ha [10] |
| --- | --- | --- | --- | --- | --- | --- | --- | --- | --- | --- |
| CCOc1ccc(-c2nc(C3C(=O)[C@@H]4CC[C@@H](C4)C3=O)c(C)s2)cc1F (stereo partly shown) [Compound T77] | 50% | 0% | 0% | 0% | 0% | 0% | 0% | 60% | 70% | 0% |
| Cc1ccc(-c2nc(C3C(=O)[C@@H]4CC[C@@H](C4)C3=O)c(C)s2)cc1Cl (stereo partly shown) [Compound T10] | 0% | 0% | 60% | 20% | 20% | 0% | 0% | 70% | 70% | 20% |
| Cc1sc(-c2cc(Cl)ccc2Cl)nc1C1C(=O)[C@@H]2CC[C@@H](C2)C1=O (stereo partly shown) [Compound T73] | 0% | 50% | 0% | 0% | 0% | 0% | 0% | 20% | 30% | 0% |
| C=Cc1ccc(-c2nc(C3C(=O)[C@@H]4CC[C@@H](C4)C3=O)c(C)s2)cc1 (stereo partly shown) [Compound T78] | 0% | 90% | 0% | 0% | 0% | 0% | 0% | 70% | 80% | 60% |
| Cc1sc(-c2ccc(OC(F)F)cc2Cl)nc1C1C(=O)[C@@H]2CC[C@@H](C2)C1=O (stereo partly shown) [Compound T84] | 0% | 40% | 100% | 100% | 70% | 40% | 70% | 100% | 100% | 90% |
| Cc1sc(-c2ccc(Cl)cc2Cl)nc1C1C(=O)[C@@H]2CC[C@@H](C2)C1=O (stereo partly shown) [Compound T3] | 0% | 0% | 80% | 90% | 60% | 0% | 60% | 100% | 100% | 90% |
| Cc1cc(Br)ccc1-c1nc(C2=C(OC(=O)C3CC3)[C@@H]3CC[C@@H](C3)C2=O)c(C)s1 [Compound P13] | 0% | 100% | 50% | 100% | 70% | 0% | 90% | 100% | 100% | 90% |
| Cc1sc(-c2ccc(Cl)cc2F)nc1C1C(=O)[C@@H]2CC[C@@H](C2)C1=O (stereo partly shown) [Compound T13] | 0% | 40% | 100% | 100% | 90% | 0% | 90% | 100% | 100% | 100% |
| CCc1sc(-c2ccc(Cl)cc2Cl)nc1C1C(=O)[C@@H]2CC[C@@H](C2)C1=O (stereo partly shown) [Compound T46] | 0% | 30% | 100% | 90% | 60% | 0% | 90% | 100% | 100% | 100% |
| CCc1sc(-c2ccc(Br)cc2)nc1C1C(=O)[C@@H]2CC[C@@H](C2)C1=O (stereo partly shown) [Compound T28] | 0% | 90% | 100% | 100% | 80% | 0% | 100% | 100% | 100% | 100% |
| CC(C)(C)C(=O)OC1=C(c2csc(-c3ccc(Cl)cc3)n2)C(=O)[C@@H]2CC[C@H]1C2 [Compound P22] | 0% | 0% | 0% | 30% | 0% | 0% | 0% | 20% | 70% | 0% |
| Cc1sc(-c2ccc(Br)cn2)nc1C1=C(OC(=O)C2CC2)[C@@H]2CC[C@@H](C2)C1=O [Compound P7] | 0% | 0% | 20% | 90% | 30% | 0% | 90% | 100% | 100% | 90% |
| CCc1sc(-c2ccc(C)cc2)nc1C1C(=O)[C@@H]2CC[C@@H](C2)C1=O (stereo partly shown) [Compound T54] | 0% | 70% | 100% | 60% | 90% | 30% | 90% | 100% | 100% | 100% |
| CCc1sc(-c2ccc(Cl)cc2Br)nc1C1C(=O)[C@@H]2CC[C@@H](C2)C1=O (stereo partly shown) [Compound T51] | 0% | 20% | 100% | 100% | 80% | 0% | 100% | 100% | 100% | 100% |
| Cc1cc(-c2nc(C3C(=O)[C@@H]4CC[C@@H](C4)C3=O)c(C)s2)ccc1Cl (stereo partly shown) [Compound T4] | 0% | 0% | 60% | 30% | 50% | 0% | – | 100% | 80% | 60% |
| O=C1C(c2cncc(Cl)c2)C(=O)[C@H]2CC[C@@H]1C2 (stereo partly shown) [Compound T85] | 30% | 0% | 0% | 0% | 0% | – | – | – | – | – |
